According to the supplement of paper PMC13380429:
± gives the standard deviation of the averaged measurements.

Key:
Conditions in all cases: 72 h
Caco-2 [1] = test: cell viability relative to DMSO; higher = less toxic
Calu-3 [2] = test: as above
HepG2 [3] = test: as above
U2OS [4] = test: as above
Vero E6 [5] = test: as above
Caco-2 [6] = test: relative viability EC50 (midpoint between 100% and the lowest measured viability); higher = less toxic
Calu-3 [7] = test: as above
HepG2 [8] = test: as above
U2OS [9] = test: as above
Vero E6 [10] = test: as above
Caco-2 [11] = test: drug sensitivity score (DSS) for viability; higher = more toxic; extreme values may be limits of the assay
Calu-3 [12] = test: as above
HepG2 [13] = test: as above
U2OS [14] = test: as above
Vero E6 [15] = test: as above

Row | SMILES | cell viability (Caco-2 [1]; 1 nM) [%] | cell viability (Caco-2 [1]; 10 nM) [%] | cell viability (Caco-2 [1]; 100 nM) [%] | cell viability (Caco-2 [1]; 1000 nM) [%] | cell viability (Caco-2 [1]; 10000 nM) [%] | cell viability (Calu-3 [2]; 1 nM) [%] | cell viability (Calu-3 [2]; 10 nM) [%] | cell viability (Calu-3 [2]; 100 nM) [%] | cell viability (Calu-3 [2]; 1000 nM) [%] | cell viability (Calu-3 [2]; 10000 nM) [%] | cell viability (HepG2 [3]; 1 nM) [%] | cell viability (HepG2 [3]; 10 nM) [%] | cell viability (HepG2 [3]; 100 nM) [%] | cell viability (HepG2 [3]; 1000 nM) [%] | cell viability (HepG2 [3]; 10000 nM) [%] | cell viability (U2OS [4]; 1 nM) [%] | cell viability (U2OS [4]; 10 nM) [%] | cell viability (U2OS [4]; 100 nM) [%] | cell viability (U2OS [4]; 1000 nM) [%] | cell viability (U2OS [4]; 10000 nM) [%] | cell viability (Vero E6 [5]; 1 nM) [%] | cell viability (Vero E6 [5]; 10 nM) [%] | cell viability (Vero E6 [5]; 100 nM) [%] | cell viability (Vero E6 [5]; 1000 nM) [%] | cell viability (Vero E6 [5]; 10000 nM) [%] | relative viability EC50 (Caco-2 [6]) [µM] | relative viability EC50 (Calu-3 [7]) [µM] | relative viability EC50 (HepG2 [8]) [µM] | relative viability EC50 (U2OS [9]) [µM] | relative viability EC50 (Vero E6 [10]) [µM] | drug sensitivity score (Caco-2 [11]) | drug sensitivity score (Calu-3 [12]) | drug sensitivity score (HepG2 [13]) | drug sensitivity score (U2OS [14]) | drug sensitivity score (Vero E6 [15])
1 | Nc1nc(=O)c2c([nH]1)NCC(CNc1ccc(C(=O)N[C@@H](CCC(=O)O)C(=O)O)cc1)N2C=O (stereo not given in full) [leucovorin] | 92 ± 1.3 | 94.5 ± 6.2 | 89.6 ± 2.3 | 100.3 ± 0.92 | 100 ± 2 | 103 ± 15 | 96.9 ± 7.9 | 97.45 ± 0.78 | 99.3 ± 1.7 | 105 ± 7.5 | 116 | 96.5 | 100 | 108 | 97.5 | 108 | 98.9 | 98.1 | 95.6 | 99.2 | 101 ± 3.2 | 98.2 ± 5.1 | 104 ± 1.4 | 97.2 ± 2 | 101 ± 6.8 | > 10 | > 10 | > 10 | > 10 | > 10 | 0 | 0 | 0 | 0 | 0
2 | NC(=O)N1c2ccccc2CC(O)c2ccccc21 (stereo not given) [licarbazepine] | 98.3 | 99.5 | 97.8 | 100 | 91.5 | 98.3 | 99.9 | 96.3 | 105 | 92.1 | 96.3 | 96.4 | 93.5 | 108 | 99 | 108 | 97.5 | 98.8 | 101 | 102 | 101 | 102 | 104 | 97.6 | 97.8 | > 10 | > 10 | > 10 | > 10 | > 10 | 0 | 0 | 0 | 0 | 0
3 | CN1C(C(=O)Nc2ccccn2)=C(O)c2sc(Cl)cc2S1(=O)=O [lornoxicam] | 110 | 95 | 99.9 | 86.6 | 95.5 | 95.3 | 100 | 107 | 99.8 | 104 | 91.1 | 104 | 100 | 104 | 97.4 | 100 | 93.8 | 102 | 94.7 | 100 | 92.4 | 98.8 | 94.8 | 97.1 | 91.3 | > 10 | > 10 | > 10 | > 10 | > 10 | 0 | 0 | 0 | 0 | 0
